Literature values, collected in patent US9932637B2, “Genetic polymorphisms associated with cardiovascular disorders and drug response, methods of detection and uses thereof” (CELERA CORPORATION, priority 2003, dated 2018).

System: subjects with average cholesterol levels
Details: AFCAPS/TexCAPS; cited from earlier work

CC[C@H](C)C(=O)O[C@H]1C[C@@H](C)C=C2C=C[C@H](C)[C@H](CC[C@@H]3C[C@@H](O)CC(=O)O3)[C@H]21 [lovastatin]
LDL-C reduced (average): 25%
events decreased: 37%
